Experimental data taken from ChEMBL document CHEMBL2412979, “2-(2-Methylfuran-3-carboxamido)-3-phenylpropanoic acid, a potential CYP26A1 inhibitor to enhance all-trans retinoic acid-induced leukemia cell differentiation based on virtual screening and biological evaluation” (Bioorg Med Chem, 2013).

Experiments:
NB-4 [1] = test: Potentiation of ATRA-induced human NB4 cell differentiation at 10 uM after 96 hrs by nitroblue tetrazolium assay (reference value: 29.44 +/- 2.03%); format: functional
NB-4 [2] = test: Potentiation of ATRA-induced human NB4 cell differentiation at 5 uM after 96 hrs by nitroblue tetrazolium assay (reference value: 29.44 +/- 2.03%); format: functional
NB-4 [3] = test: Induction of human NB4 cell differentiation at 0.5 to 10 uM after 96 hrs by nitroblue tetrazolium assay relative to control; format: functional
NB-4 [4] = test: Potentiation of ATRA-induced human NB4 cell growth inhibition at 10 uM after 96 hrs by hemocytometry (reference value: 32.70 +/- 2.25%); format: functional; conditions: NB-4, 96 h, read-out: GI
NB-4 [5] = test: Potentiation of ATRA-induced human NB4 cell growth inhibition at 5 uM after 96 hrs by hemocytometry (reference value: 32.70 +/- 2.25%); format: functional; conditions: NB-4, 96 h, read-out: GI
NB-4 [6] = test: Cytotoxicity against human NB4 cells assessed as growth inhibition at 10 uM after 96 hrs by hemocytometry relative to control; format: functional; conditions: NB-4, 96 h, read-out: GI
NB-4 [7] = test: Cytotoxicity against human NB4 cells assessed as growth inhibition at 5 uM after 96 hrs by hemocytometry relative to control; format: functional; conditions: NB-4, 96 h, read-out: GI
NB-4 [8] = test: Potentiation of ATRA-induced human NB4 cell differentiation at 1 uM after 96 hrs by nitroblue tetrazolium assay (reference value: 29.93 +/- 0.73%); format: functional
NB-4 [9] = test: Potentiation of ATRA-induced human NB4 cell growth inhibition at 1 uM after 96 hrs by hemocytometry (reference value: 32.42 +/- 3.98%); format: functional; conditions: NB-4, 96 h, read-out: GI
NB-4 [10] = test: Potentiation of ATRA-induced human NB4 cell differentiation at 0.5 uM after 96 hrs by nitroblue tetrazolium assay (reference value: 29.93 +/- 0.73%); format: functional
NB-4 [11] = test: Cytotoxicity against human NB4 cells assessed as growth inhibition at 1 uM after 96 hrs by hemocytometry relative to control; format: functional; conditions: NB-4, 96 h, read-out: GI
NB-4 [12] = test: Potentiation of ATRA-induced human NB4 cell growth inhibition at 0.5 uM after 96 hrs by hemocytometry (reference value: 32.42 +/- 3.98%); format: functional; conditions: NB-4, 96 h, read-out: GI
NB-4 [13] = test: Cytotoxicity against human NB4 cells assessed as growth inhibition at 0.5 uM after 96 hrs by hemocytometry relative to control; format: functional; conditions: NB-4, 96 h, read-out: GI
Cytochrome P450 26A1 = target: T1, Cytochrome P450 26A1 (Homo sapiens, UniProt O43174); test: Inhibition of CYP26A1 in human NB4 cells assessed as ATRA level in medium at 5 uM after 12 hrs by LC-MS/MS analysis (reference value: 27.05 +/- 1.34 ng/ml); format: cell-based; conditions: nb-4, 12 h
T1 sequence (O43174 whole entry): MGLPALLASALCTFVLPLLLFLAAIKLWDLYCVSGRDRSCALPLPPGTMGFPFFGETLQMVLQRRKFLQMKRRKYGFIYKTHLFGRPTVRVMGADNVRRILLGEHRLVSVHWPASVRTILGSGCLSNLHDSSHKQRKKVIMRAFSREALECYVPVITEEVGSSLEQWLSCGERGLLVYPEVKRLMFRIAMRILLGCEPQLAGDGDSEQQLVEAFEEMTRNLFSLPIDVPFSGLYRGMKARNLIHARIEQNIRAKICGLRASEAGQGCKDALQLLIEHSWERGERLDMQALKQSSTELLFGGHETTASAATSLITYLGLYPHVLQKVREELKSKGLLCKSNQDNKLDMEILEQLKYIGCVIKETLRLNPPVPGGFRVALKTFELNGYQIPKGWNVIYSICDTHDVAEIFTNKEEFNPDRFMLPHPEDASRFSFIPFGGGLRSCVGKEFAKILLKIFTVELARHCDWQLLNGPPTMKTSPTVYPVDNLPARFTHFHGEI

| SMILES | Activity (NB-4 [1]) | Activity (NB-4 [2]) | Activity (NB-4 [3]) | inhibition of growth at 10 µM (NB-4 [4]) | inhibition of growth at 5 µM (NB-4 [5]) | inhibition of growth at 10 µM (NB-4 [6]) | inhibition of growth at 5 µM (NB-4 [7]) | Activity (NB-4 [8]) | inhibition of growth at 1 µM (NB-4 [9]) | Activity (NB-4 [10]) | inhibition of growth at 1 µM (NB-4 [11]) | inhibition of growth at 0.5 µM (NB-4 [12]) | inhibition of growth at 0.5 µM (NB-4 [13]) | Activity (Cytochrome P450 26A1) |
| --- | --- | --- | --- | --- | --- | --- | --- | --- | --- | --- | --- | --- | --- | --- |
| CCOc1ccc(NS(=O)(=O)c2ccc(Br)cc2)cc1 | 30.3% | 26.83% | 0% | 48.4% | 44.1% | 20.8% | 17.1% |  |  |  |  |  |  |  |
| Cc1ccc(OCc2nc(-c3cccnc3)no2)c(Br)c1 | 28.85% | 25.37% | 0% | 42.9% | 39.8% | 23.5% | 18.2% |  |  |  |  |  |  |  |
| COc1ccc(/C=C/C(=O)Nc2sc3c(c2C(=O)O)CCC3)cc1 | 31.42% | 30.05% | 0% | 34.9% | 31.5% | 1.22% | 0.49% |  |  |  |  |  |  |  |
| O=C(CCN1C(=O)c2ccccc2C1=O)Nc1cc(Cl)ccc1C(=O)O | 36.7% | 39.6% | 0% | 39.1% | 41.3% | 9.31% | 3.68% | 36.18% | 38.6% | 35.1% | 19.2% | 47.9% | 13.8% |  |
| O=C(Nc1ccncc1)c1cc(-c2ccc(Br)cc2)nc2ccccc12 | 38.52% | 33.68% | 0% | 59.4% | 63.1% | 52.9% | 37.9% | 35.7% | 48.7% | 36.53% | 24.7% | 54.3% | 20.2% |  |
| O=C(O)c1ccc(COc2ccc(/C=C3\SC(=O)N(c4cccc(Cl)c4)C3=O)cc2)cc1 | 41.85% | 38.42% | 0% | 41.1% | 43.8% | 9.07% | 11% | 35.4% | 53.7% | 31.47% | 18% | 44.1% | 18.6% |  |
| CC1=CC(=O)OC2C=C(OCCOc3ccc(C(C)(C)C)cc3)C=CC12 (stereo not drawn) | 42.39% | 39.97% | 0% | 48.3% | 43.5% | 6.78% | 7.78% | 38.42% | 43% | 35.72% | 13.6% | 46.1% | 14.4% |  |
| O=C(CCN1C(=O)c2ccccc2C1=O)NCc1ccncc1 | 41.21% | 41.55% | 0% | 49.7% | 50.9% | 12.4% | 14.6% | 37.16% | 48.5% | 35.05% | 16.5% | 50.8% | 14.2% |  |
| Cc1cccc(-c2nc3cc(/N=C/c4c(C)cc(O)cc4O)ccc3o2)c1 | 45.38% | 36.43% | 0% | 79% | 64.3% | 48.5% | 37.1% | 27.65% | 48.5% | 29.21% | 22.6% | 50.1% | 25.8% |  |
| Cc1oc(C(C)(C)C)cc1C(=O)NC(Cc1ccccc1)C(=O)O (stereo not drawn) | 42.64% | 45.16% | 0% | 47.1% | 40.2% | 8.05% | 7.7% | 38% | 47.1% | 39.58% | 17.8% | 50.6% | 12.8% | 33.9 ng/mL |
| CC(=O)Nc1ccc(C(=O)Nc2ccc(OCC(=O)O)cc2)cc1 | 38.97% | 38.29% | 0% | 48.8% | 45.8% | 14.2% | 17.9% | 34.74% | 45.1% | 37.62% | 8.83% | 45% | 7.8% |  |
| Clc1cccc(C(c2ccc3[nH]cnc3c2)n2ccnc2)c1 (stereo not drawn) [LIAROZOLE] | 34.9% | 33.53% | 0% | 56.3% | 55.3% | 40.9% | 32.7% | 38.22% | 46% | 42.86% | 23.1% | 49.6% | 14.5% | 39.78 ng/mL |
| Cc1cc(O)nc(SCC(=O)c2ccc(O)c(O)c2)n1 | 39.43% | 41.32% | 0% | 53.5% | 53.4% | 12.8% | 12.2% | 32.57% | 51.7% | 33.19% | 18.7% | 50.3% | 19.3% |  |
